Data on one compound can be found in patent publication US11207286B2, “Self-emulsifying composition of w3 fatty acid” (MOCHIDA PHARMACEUTICAL CO., LTD., priority 2009, dated 2021).

For series [1] the following is noted: on rare occasion; cited from earlier work.
Series [2] can be described thus: Pharmacokinetics in beagle. In kind it is in vivo. To be noted: male beagles fasted at least 18 hours, oral, 600 mg in terms of EPA-E, plasma EPA, corrected for pre-administration concentration. As for the experimental part:
The compositions of the Examples 6, 7, 9, 10, 13, and Comparative Example 2 were orally administered to 3 to 8 male beagles (34 to 45 months old having a body weight of 11 to 17 kg, Kitayama Labes Co., Ltd.) under fasting, and time course blood EPA concentration was evaluated. The test animals were fasted at least for 18 hours before the test, and each animal was administered with the composition at an amount of 600 mg in terms of the EPA-E. The blood was collected before the administration and at 1, 1.5, 2, 2.5, 3, 4, 6, 8, and 24 hours after the administration, and after separating and treating the plasma, plasma EPA concentration was measured by LC/MS/MS. The EPA-E stock solution filled in a capsule was also administered to the control group animals. […] In calculating each parameter, the value was corrected by subtracting the blood EPA concentration before the administration from the blood concentration after the administration.

Series [3] can be described thus: Pharmacokinetics in cynomolgus monkey. In kind it is in vivo. The note with it: cynomolgus monkeys fasted at least 12 hours, oral, 4.5 mg/kg in terms of EPA-E, plasma EPA. As for the experimental part:
The compositions of the Example 6 was orally administered to 6 cynomolgus monkies (2 to 5 years having a body weight of 2.70 to 4.65 kg, Hamri Co., Ltd.) under fasting, and time course blood EPA concentration was evaluated. The test animals were fasted at least for 12 hours before the test, and each animal was administered with the self-emulsifying composition at an amount of 4.5 mg/kg in terms of the EPA-E. The EPA-E stock solution filled in a capsule was also administered to the control group animals. The blood was collected before the administration and at 1, 2, 4, 6, 8, 10, 12, 24, 48, and 72 hours after the administration, and after separating and treating the plasma, plasma EPA was measured by LC/MS/MS. […] In calculating each parameter, the value was corrected by subtracting the blood EPA concentration before the administration from the blood concentration after the administration.

Series [4] relates to Fasted Glucose Tolerance Model Rat. Briefly: Effectiveness in fasted glucose tolerance model rat. To be noted: rats fasted at least 24 hours, oral capsule 100 mg/kg in terms of EPA-E, glucose 2 g/kg 30 minutes later. In kind it is in vivo, Sprague Dawley rats. Here is the method:
Male Sprague Dawley rats (10 week old, Charles River Laboratories Japan, Inc.) are divided into 4 groups each comprising 10 animals with even body weight and serum TG value. Control group is administered with olive oil, EPA-E group is administered with EPA-E stock solution, Example group is administered with the self-emulsifying composition of Example 6, and comparative group is administered with the composition of Comparative Example 2 by filling in the gelatin capsule and perorally administering the capsule to the animals, respectively. The test animals are fasted at least 24 hours before the administration, and each animal is administered with the composition at an amount of 100 mg/kg in terms of the olive oil or the EPA-E. 30 minutes after the administration, glucose solution in physiological saline is orally administered at 2 g/kg. Blood is periodically collected from tail vein, and plasma TG concentration and free fatty acid concentration are measured by using a commercially available assay kit. Change from the value before the glucose loading is calculated for each parameter.

Turning to `CC/C=C\C/C=C\C/C=C\C/C=C\C/C=C\CCCC(=O)OCC` [EPA-E stock solution, Ethyl eicosapentaenoate ester], in series [1], the “side effect: nausea” value was 0.23%, the “side effect: stomach discomfort” value is 0.23% and the “side effect: vomiturition” value is listed as 0.21%. The same compound came in with an AUC0-2 in series [2] (0 to 2 hours) of 14.4 µg·h/mL. In addition, in series [2] (0 to 24 hours), the AUC0-24 was 188.0 µg·h/mL. Besides, the Cmax (usually the maximum level reached in the sampled fluid or tissue) in series [2] was determined as 16600 ng/mL. In addition, the AUC0-12 in series [3] (0 to 12 hours, corrected) is 46.5 µg·h/mL. This compound also showed an AUC0-72 in series [3] (0 to 72 hours, corrected) of 284.5 µg·h/mL. The compound further had a Cmax in series [3] (corrected for pre-administration concentration) of 7400 ng/mL. The “increase in plasma TG concentration after the glucose loading” value in series [4] is “not observed”.
